{
  "source": "patent US20110039762A1",
  "about": "“TARGETED ANTIMICROBIAL MOIETIES” (C3 JIAN, INC., priority 2009, published 2011)",
  "key": {"microorganisms": {"system": "microorganisms", "test": "Peptides having multiple activities (targeting/binding, antimicrobial, growth or phenotype altering)", "text": "In certain embodiments, peptides described herein can have multiple activities. Thus for example, a peptide can have both binding/targeting activity and antimicrobial activity. Such peptides can be used, e.g., in a chimeric construct, for any or all of these properties. Thus, for example, a peptide designated “B” in Table 8 can be used as a targeting peptide. If it is also designated G or M it can also be used for antimicrobial activity."}, "S. pneumoniae": {"system": "S. pneumoniae", "test": "Kill or inhibit growth/proliferation; morphology, biofilm and growth disruption (Tables 5, 6); for all read-outs here: test concentration or dose not given here", "format": "cell-based, Streptococcus pneumoniae", "set-up": "key: A: Peptide aggregates; B: Less hyphal formation; Clumps; Diffuse clumps and small polyps; F: Diffuse growth; H: Thin; I: Growth inhibition; Microcolony formation; Rippled; Small polyps; Thick; W: Halo formation on top, microlonies on bottom"}, "M. luteus": {"system": "M. luteus", "test": "Kill or inhibit growth/proliferation; morphology, biofilm and growth disruption (Tables 5, 6)", "format": "cell-based, Micrococcus luteus", "set-up": "key: A: Peptide aggregates; B: Less hyphal formation; Clumps; Diffuse clumps and small polyps; F: Diffuse growth; H: Thin; I: Growth inhibition; Microcolony formation; Rippled; Small polyps; Thick; W: Halo formation on top, microlonies on bottom"}, "MRSA": {"system": "MRSA", "test": "Kill or inhibit growth/proliferation; morphology, biofilm and growth disruption (Tables 5, 6)", "format": "cell-based, Methicillin-resistant Staphylococcus aureus", "set-up": "key: A: Peptide aggregates; B: Less hyphal formation; Clumps; Diffuse clumps and small polyps; F: Diffuse growth; H: Thin; I: Growth inhibition; Microcolony formation; Rippled; Small polyps; Thick; W: Halo formation on top, microlonies on bottom"}, "S. epidermidis": {"system": "S. epidermidis", "test": "Kill or inhibit growth/proliferation; morphology, biofilm and growth disruption (Tables 5, 6)", "format": "cell-based, Staphylococcus epidermidis", "set-up": "key: A: Peptide aggregates; B: Less hyphal formation; Clumps; Diffuse clumps and small polyps; F: Diffuse growth; H: Thin; I: Growth inhibition; Microcolony formation; Rippled; Small polyps; Thick; W: Halo formation on top, microlonies on bottom"}, "[1]": {"system": "microorganisms (e.g., bacteria, yeasts, fungi)", "test": "Targeting peptide binding to target microorganisms (Table 3)", "details": "preferably 1x PBS; for Target(s): microorganism(s) the targeting peptide binds, peptide binding conducted in aqueous buffers varied by peptide solubility"}, "E. faecalis": {"system": "E. faecalis", "test": "Kill or inhibit growth/proliferation; morphology, biofilm and growth disruption (Tables 5, 6)", "format": "cell-based, Enterococcus faecalis", "set-up": "key: A: Peptide aggregates; B: Less hyphal formation; Clumps; Diffuse clumps and small polyps; F: Diffuse growth; H: Thin; I: Growth inhibition; Microcolony formation; Rippled; Small polyps; Thick; W: Halo formation on top, microlonies on bottom"}, "C. jejuni": {"system": "C. jejuni", "test": "Kill or inhibit growth/proliferation; morphology, biofilm and growth disruption (Tables 5, 6)", "format": "cell-based, Campylobacter jejuni", "set-up": "key: A: Peptide aggregates; B: Less hyphal formation; Clumps; Diffuse clumps and small polyps; F: Diffuse growth; H: Thin; I: Growth inhibition; Microcolony formation; Rippled; Small polyps; Thick; W: Halo formation on top, microlonies on bottom"}, "E. coli": {"system": "E. coli", "test": "Kill or inhibit growth/proliferation; morphology, biofilm and growth disruption (Tables 5, 6)", "format": "cell-based, Escherichia coli", "set-up": "key: A: Peptide aggregates; B: Less hyphal formation; Clumps; Diffuse clumps and small polyps; F: Diffuse growth; H: Thin; I: Growth inhibition; Microcolony formation; Rippled; Small polyps; Thick; W: Halo formation on top, microlonies on bottom"}},
  "note": "Entries after “also recorded” stand apart in the source; their conditions may differ.",
  "data": [
    {"substance": "EILNNNQVIKELTMKYKTQFESNLGGWTARARR [PF-580]", "values": [
      {"measurement": "Activities", "setting": "microorganisms", "result": "G B"},
      {"measurement": "Organism, effect", "setting": "S. pneumoniae", "result": "S. pneumoniae (C)"},
      {"measurement": "Organism, effect", "setting": "M. luteus", "result": "M. luteus (C)"},
      {"measurement": "Organism, effect", "setting": "MRSA", "result": "MRSA (M)"},
      {"measurement": "Organism, effect", "setting": "S. epidermidis", "result": "S. epidermidis (M)"}
    ]},
    {"substance": "PF-470: peptide having multiple activities (chain 1 PYSDSYATRPHWEQHRAR; chain 2 PYSDSYATRPHWEQHRAR; Peptide with targeting and/or antimicrobial activity)", "values": [
      {"measurement": "Target(s)", "setting": "[1]", "result": "M. luteus and E. coli and MRSA and E. faecalis and C. jeikeium and C. jejuni"},
      {"measurement": "Activities", "setting": "microorganisms", "result": "G B"},
      {"measurement": "Organism, effect", "setting": "E. faecalis", "result": "E. faecalis (A)"},
      {"measurement": "Organism, effect", "setting": "C. jejuni", "result": "C. jejuni (A)"}
    ]},
    {"substance": "PF-392: peptide having multiple activities (chain 1 DPAGCNDIVRKYCK; chain 2 DPAGCNDIVRKYCK; Peptide with targeting and/or antimicrobial activity)", "values": [
      {"measurement": "Target(s)", "setting": "[1]", "result": "S. epidermidis; also recorded: B. subtilis; also recorded: S. pneumoniae; also recorded: C. jeikeium; also recorded: C. jejuni"},
      {"measurement": "Activities", "setting": "microorganisms", "result": "G B"},
      {"measurement": "Organism, effect", "setting": "MRSA", "result": "MRSA (S)"},
      {"measurement": "Organism, effect", "setting": "E. faecalis", "result": "E. faecalis (A)"},
      {"measurement": "Organism, effect", "setting": "C. jejuni", "result": "C. jejuni (A)"}
    ]},
    {"substance": "PF-059 (TITLKAGIERALHEEVPGVIEVEQVF; Peptide with targeting and/or antimicrobial activity)", "values": [
      {"measurement": "Organism, effect", "setting": "C. jejuni", "result": "C. jejuni (C)"}
    ]},
    {"substance": "PF-590: peptide having multiple activities (YYQAKLFPLL; Peptide with targeting and/or antimicrobial activity)", "values": [
      {"measurement": "Target(s)", "setting": "[1]", "result": "S. epidermidis; also recorded: M. luteus; also recorded: E. coli; also recorded: E. faecalis; also recorded: C. jeikeium"},
      {"measurement": "Activities", "setting": "microorganisms", "result": "G B"},
      {"measurement": "Organism, effect", "setting": "C. jejuni", "result": "C. jejuni (R)"}
    ]},
    {"substance": "PF-357: peptide having multiple activities (chain 1 MLTIIIGFIFWTMTLMLGYLIGEREGRKHE; chain 2 MLTIIIGFIFWTMTLMLGYLIGEREGRKHE; Peptide with targeting and/or antimicrobial activity)", "values": [
      {"measurement": "Activities", "setting": "microorganisms", "result": "G B"},
      {"measurement": "Organism, effect", "setting": "S. pneumoniae", "result": "S. pneumoniae (M)"},
      {"measurement": "Organism, effect", "setting": "M. luteus", "result": "M. luteus (C)"},
      {"measurement": "Organism, effect", "setting": "MRSA", "result": "MRSA (M)"},
      {"measurement": "Organism, effect", "setting": "S. epidermidis", "result": "S. epidermidis (M)"}
    ]},
    {"substance": "PF-456: peptide having multiple activities (chain 1 TCVKPRTIN; chain 2 TCVKPRTIN; Peptide with targeting and/or antimicrobial activity)", "values": [
      {"measurement": "Target(s)", "setting": "[1]", "result": "C. albicans and MRSA and E. faecalis and C. jeikeium and C. jejuni"},
      {"measurement": "Activities", "setting": "microorganisms", "result": "G B"},
      {"measurement": "Organism, effect", "setting": "E. faecalis", "result": "E. faecalis (A)"},
      {"measurement": "Organism, effect", "setting": "C. jejuni", "result": "C. jejuni (A)"}
    ]},
    {"substance": "MGIIAGIIKVIKSLIEQFTGK [PF-007]", "values": [
      {"measurement": "Activities", "setting": "microorganisms", "result": "G B"},
      {"measurement": "Organism, effect", "setting": "M. luteus", "result": "M. luteus (A)"},
      {"measurement": "Organism, effect", "setting": "MRSA", "result": "MRSA (R)"},
      {"measurement": "Organism, effect", "setting": "E. faecalis", "result": "E. faecalis (A)"},
      {"measurement": "Organism, effect", "setting": "E. coli", "result": "E. coli (A)"},
      {"measurement": "Organism, effect", "setting": "S. epidermidis", "result": "S. epidermidis (A)"}
    ]},
    {"substance": "DLLKSLLGQDGAKNDEIIEFIKIIMEK [PF-591]", "values": [
      {"measurement": "Organism, effect", "setting": "S. pneumoniae", "result": "S. pneumoniae (R)"},
      {"measurement": "Organism, effect", "setting": "E. faecalis", "result": "E. faecalis (A)"},
      {"measurement": "Organism, effect", "setting": "C. jejuni", "result": "C. jejuni (C)"}
    ]},
    {"substance": "PF-601: peptide having multiple activities (YRVTVKALE; Peptide with targeting and/or antimicrobial activity)", "values": [
      {"measurement": "Target(s) (microorganisms bound by the targeting peptide)", "setting": "[1]; peptide binding in aqueous buffers varied by peptide solubility", "result": "C. jeikeium"},
      {"measurement": "Activities", "setting": "microorganisms", "result": "G B"},
      {"measurement": "Organism, effect", "setting": "E. faecalis", "result": "E. faecalis (A)"},
      {"measurement": "Organism, effect", "setting": "C. jejuni", "result": "C. jejuni (A)"}
    ]}
  ]
}
